Target: T1, Vps4–Vta1 complex (Saccharomyces cerevisiae, UniProt P52917)
T1 construct: both proteins with N-terminal His6 tag (pET28a), E. coli BL21(DE3); Vps4 hexamer with Vta1 at ~2:1 Vta1/Vps4; four Vta1 CTD dimers modelled; with Vacuolar protein sorting-associated protein VTA1
T1 sequence (P52917 1-437 E233Q): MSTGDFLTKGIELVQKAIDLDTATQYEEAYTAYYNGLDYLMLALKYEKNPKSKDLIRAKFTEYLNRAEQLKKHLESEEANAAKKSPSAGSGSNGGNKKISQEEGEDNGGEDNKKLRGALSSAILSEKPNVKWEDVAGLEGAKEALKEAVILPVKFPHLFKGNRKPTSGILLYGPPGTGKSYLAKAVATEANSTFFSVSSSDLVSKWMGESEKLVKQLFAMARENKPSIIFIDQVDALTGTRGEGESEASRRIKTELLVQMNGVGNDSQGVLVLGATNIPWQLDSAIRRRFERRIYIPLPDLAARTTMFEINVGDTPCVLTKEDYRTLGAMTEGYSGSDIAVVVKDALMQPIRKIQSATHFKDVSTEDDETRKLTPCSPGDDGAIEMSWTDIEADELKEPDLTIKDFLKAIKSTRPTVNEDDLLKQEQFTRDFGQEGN
T1 sequence (Q06263 1-330 partner): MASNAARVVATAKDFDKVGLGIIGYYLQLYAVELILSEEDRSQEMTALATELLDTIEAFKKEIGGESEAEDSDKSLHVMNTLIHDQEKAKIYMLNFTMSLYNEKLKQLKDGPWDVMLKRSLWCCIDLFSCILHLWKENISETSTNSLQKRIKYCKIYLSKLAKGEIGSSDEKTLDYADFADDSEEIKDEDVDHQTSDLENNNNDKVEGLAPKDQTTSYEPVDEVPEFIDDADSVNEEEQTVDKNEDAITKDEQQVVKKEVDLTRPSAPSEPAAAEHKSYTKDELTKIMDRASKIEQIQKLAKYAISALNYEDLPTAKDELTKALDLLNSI
Assay: malachite green phosphate release (ATPase)
Format: biochemical
Settings: 1 uM Vps4, 5 mM ATP, 2 mM MgCl2, pH 7.5, 37 °C; Vta1 present

SMILES: Nc1ncnc2c1ncn2[C@@H]1O[C@H](COP(=O)(O)OP(=O)(O)OP(=O)(O)O)[C@@H](O)[C@H]1O [ATP]
- malachite green phosphate release (ATPase): the ATPase activity of the wild-type Vps4 was increased by twofold in the presence of Vta1
